The text below walks through data of PMC12172689 (ACS infectious diseases, 2025).

Residue numbers refer to the chain shown, from its start.

One assay has as its system T. gondii cell cycle. As to conditions: cited from earlier work.
A further assay relates to T. gondii TgMAPKL1 L162Q. The experiment in a line: T. gondii proliferation inhibition, remaining host cell nuclei (DAPI), TgMAPKL1 L162Q strain. It is filed as cell-based, Toxoplasma gondii. As to conditions: for EC50: read-out: TgMAPKL1 L162Q EC50 (95% CI), remaining host cell nuclei, 5 days.
In assay [1] the test system is T. gondii TgCDPK1 G128M TgMAPKL1 L162Q. The experiment in a line: T. gondii proliferation inhibition, remaining host cell nuclei (DAPI), double mutant G128M/L162Q. To be noted: for EC50: read-out: TgCDPK1 G128M TgMAPKL1 L162Q EC50 (95% CI), double mutant, remaining host cell nuclei, 5 days. Format: cell-based, Toxoplasma gondii.
For another assay, the system named is T. gondii parent strain. The experiment in a line: T. gondii proliferation inhibition, remaining host cell nuclei (DAPI), parent strain. It is filed as cell-based, Toxoplasma gondii. As to conditions: read-out: parent EC50 (95% CI), 5 days.
A further assay has as its system T. gondii TgMAPKL1 S191Y. To be noted: cited from earlier work.
Another assay concerns T. gondii TgCDPK1 G128M. The experiment in a line: T. gondii proliferation inhibition, remaining host cell nuclei (DAPI), TgCDPK1 G128M strain. Format: cell-based, Toxoplasma gondii.
The next assay deals with T1, TgCDPK1 128M (Toxoplasma gondii, UniProt Q9BJF5, G128M).
T1 sequence (Q9BJF5 1-507 G128M): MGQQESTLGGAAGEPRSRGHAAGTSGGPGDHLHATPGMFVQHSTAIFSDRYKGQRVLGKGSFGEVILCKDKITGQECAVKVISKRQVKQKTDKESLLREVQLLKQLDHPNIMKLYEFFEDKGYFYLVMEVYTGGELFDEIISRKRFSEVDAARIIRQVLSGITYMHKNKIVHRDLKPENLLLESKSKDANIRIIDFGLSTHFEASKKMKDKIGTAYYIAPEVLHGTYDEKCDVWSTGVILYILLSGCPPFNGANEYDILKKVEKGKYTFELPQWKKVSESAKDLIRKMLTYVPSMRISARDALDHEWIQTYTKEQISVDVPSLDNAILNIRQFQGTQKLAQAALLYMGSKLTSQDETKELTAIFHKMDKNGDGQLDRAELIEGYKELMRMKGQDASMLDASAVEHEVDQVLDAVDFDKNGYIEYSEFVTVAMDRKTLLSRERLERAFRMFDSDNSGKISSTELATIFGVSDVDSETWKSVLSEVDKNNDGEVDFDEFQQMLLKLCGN
The experiment in a line: TgCDPK1 enzyme inhibition assay (Kinase Glo), methionine gatekeeper mutant. Format: biochemical. To be noted: for Fold Increase IC50: TgCDPK1 128M vs 128G; for IC50: read-out: TgCDPK1 128M IC50, introduced methionine gatekeeper, 10 μM ATP.

The next assay addresses T2, TgCDPK1 128G (Toxoplasma gondii, UniProt Q9BJF5).
T2 sequence (Q9BJF5 1-507): T1 sequence (Q9BJF5 1-507 G128M) with M128G
Briefly: TgCDPK1 enzyme inhibition assay (Kinase Glo), wild type glycine gatekeeper. It is filed as biochemical. To be noted: read-out: TgCDPK1 128G IC50, 10 μM ATP.

Assay [2] concerns T. gondii with a L162Q substitution in TgMAPKL1. Briefly: T. gondii proliferation inhibition assay, β-galactosidase readout, TgMAPKL1 L162Q strain. As to conditions: for Fold Increase EC50: TgMAPKL1 L162Q vs parent strain, β-galactosidase assay; for EC50: read-out: TgMAPKL1 L162Q EC50 (95% CI), TgMAPKL1 L162Q strain, β-galactosidase activity, 72 h. Format: cell-based, Toxoplasma gondii.

Assay [3] deals with T. gondii TgMAPKL1 parental strain (RH, β-galactosidase transgene). Briefly: T. gondii proliferation inhibition assay, β-galactosidase readout, parent strain. It is filed as cell-based, Toxoplasma gondii. To be noted: read-out: TgMAPKL1 Parental EC50 (95% CI), β-galactosidase activity, 72 h.
Assay [4] has as its system RH-strain T. gondii tachyzoites. Briefly: Determination of mutagen concentration killing T. gondii tachyzoites. Format: cell-based, Toxoplasma gondii. To be noted: RH-strain tachyzoites expressing β-galactosidase and GFP.
In another assay the test system is T. gondii TgCDPK1 G128T. The experiment in a line: T. gondii proliferation inhibition, remaining host cell nuclei (DAPI), TgCDPK1 G128T strain. It is filed as cell-based, Toxoplasma gondii. As to conditions: read-out: TgCDPK1 G128T EC50 (95% CI), 5 days.
Where [5] appears, read: vs parent strain, host cell nuclei assay.

As to `Cc1cccc(-c2[nH]c(C(C)(C)C)nc2-c2ccc3c(c2)OCO3)n1` [SB505124], in the assay on T. gondii cell cycle, the “effect on T. gondii cell cycle” value was “arrested the T. gondii cell cycle”.

Turning to `CC(C)(C)n1nc(Cc2cccc3ccccc23)c2c(N)ncnc21` [1-NM-PP1], the EC50 stood at 75 nM in the assay with T. gondii TgMAPKL1 L162Q, 1700 nM in assay [1] and 19 nM in the assay on T. gondii parent strain. Further, the “TgMAPKL1 L162Q fold increase EC50” value with T. gondii TgMAPKL1 L162Q (setting [5]) turned out to be 3.9 fold. Further, the “TgCDPK1 G128M TgMAPKL1 L162Q fold increase EC50” value in [1] (double mutant vs parent strain, host cell nuclei assay) is given as 89.5 fold. In addition, in the assay with T. gondii TgMAPKL1 S191Y, the “resistance conferred by TgMAPKL1 S191Y substitution” value is given as “conferred resistance”. Also, in the assay with T. gondii TgCDPK1 G128M (setting [5]), the “TgCDPK1 G128M fold increase EC50” value was 7.4 fold.

Turning to `CCOc1ccc2cc(-c3nn(CC4CCN(C)CC4)c4ncnc(N)c34)ccc2n1` [BKI-1369], at TgCDPK1 128M, the “Fold Increase IC50” value was determined as 2246 fold and the IC50 amounted to 13700 nM. Further, the IC50 at TgCDPK1 128G was 6 nM. In addition, in [2], the “Fold Increase EC50” value was found to be 3.20 fold and the EC50 was found to be 120 nM. Further, the EC50 in assay [3] stood at 38 nM.

Regarding `CCOc1ccc2cc(-c3nn(C(C)(C)C)c(N)c3C(N)=O)cnc2c1` [BKI-1517], the EC50 amounted to 290 nM in assay [2] and 80 nM in [3].

For the molecule `CCN(N=O)C(N)=O` [ENU, N-ethyl-N-nitrosourea], the “concentration required to kill 70% of a population of tachyzoites” value in assay [4] came out at 2 mM.

With `CCOc1ccc2cc(-c3nn(C4CCOCC4)c(N)c3C(N)=O)ccc2n1` [BKI-1841], at TgCDPK1 128M, the “Fold Increase IC50” value came out at 585 fold and the IC50 was found to be 17600 nM. Moreover, the IC50 at TgCDPK1 128G is 30 nM. In assay [2], the “Fold Increase EC50” value came to 2.90 fold and the EC50 was found to be 400 nM. For the same molecule, the 50% effective concentration (EC50) in [3] was found to be 140 nM.

With `CCOc1ccc2cc(-c3nn(CC4CCN(C)CC4)c4ncnc(N)c34)ccc2c1` [BKI-1294], the EC50 in the assay with T. gondii TgMAPKL1 L162Q stood at 450 nM; in assay [1], 3200 nM; in the assay on T. gondii parent strain it was 230 nM; with T. gondii TgCDPK1 G128M (read-out: TgCDPK1 G128M EC50 (95% CI), remaining host cell nuclei, 5 days), 1500 nM; in [2], 66 nM; with T. gondii TgCDPK1 G128T, 1700 nM. Besides, the EC50 in assay [3] was 22 nM.
